Measured values from publication PMC5516028, “Molecular tools for GABAA receptors: High affinity ligands for β1-containing subtypes” (Scientific Reports, 2017).
Read-outs that look alike come from different tables or passages of the source.

Columns and labels:
α3β2γ2 GABAA receptors = biological target: α3β2γ2 GABAA receptors; set-up: method as in earlier work; details: published data, ref 1 (Supplementary References), read-out: Approximate EC50; cited from earlier work
α1β1γ2 GABAA receptors = biological target: α1β1γ2 GABAA receptors; set-up: method as in earlier work; details: published data, ref 1 (Supplementary References), read-out: Approximate EC50; cited from earlier work
α1β3 GABAA receptors = biological target: T1, α1β3 GABAA receptors (Rattus norvegicus, UniProt P62813+P63079); set-up: method as in earlier work; details: published data, ref 1 (Supplementary References), read-out: Approximate EC50; cited from earlier work
T1 construct: expressed in transfected cells; host or cells: Xenopus laevis oocytes, mRNA injected
T1 sequence (P62813 28-455): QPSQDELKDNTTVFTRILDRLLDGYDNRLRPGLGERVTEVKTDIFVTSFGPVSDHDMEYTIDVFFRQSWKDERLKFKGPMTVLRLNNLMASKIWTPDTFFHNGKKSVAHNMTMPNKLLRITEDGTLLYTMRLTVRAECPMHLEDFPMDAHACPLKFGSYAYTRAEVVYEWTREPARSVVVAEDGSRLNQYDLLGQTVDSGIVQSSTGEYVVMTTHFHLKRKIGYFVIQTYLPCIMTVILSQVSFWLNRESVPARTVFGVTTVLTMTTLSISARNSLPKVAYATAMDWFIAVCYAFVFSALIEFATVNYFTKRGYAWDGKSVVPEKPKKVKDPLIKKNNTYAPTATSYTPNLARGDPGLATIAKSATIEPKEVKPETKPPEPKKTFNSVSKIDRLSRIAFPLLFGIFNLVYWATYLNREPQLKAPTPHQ
T1 sequence (P63079 26-473): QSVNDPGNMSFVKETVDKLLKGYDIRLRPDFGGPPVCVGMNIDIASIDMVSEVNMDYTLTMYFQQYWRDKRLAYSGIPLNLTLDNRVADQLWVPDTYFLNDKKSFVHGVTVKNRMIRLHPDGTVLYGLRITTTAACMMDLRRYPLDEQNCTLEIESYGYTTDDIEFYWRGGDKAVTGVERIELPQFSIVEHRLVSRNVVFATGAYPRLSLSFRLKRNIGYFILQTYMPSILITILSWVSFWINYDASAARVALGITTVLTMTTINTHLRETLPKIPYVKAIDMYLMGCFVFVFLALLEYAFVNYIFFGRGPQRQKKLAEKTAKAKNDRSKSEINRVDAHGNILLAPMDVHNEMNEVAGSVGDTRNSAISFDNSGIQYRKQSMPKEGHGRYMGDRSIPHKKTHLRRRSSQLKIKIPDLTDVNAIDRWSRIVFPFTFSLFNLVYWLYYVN

α5β3 GABAA receptors = biological target: T2, α5β3 GABAA receptors (Rattus norvegicus, UniProt P19969+P63079); set-up: method as in earlier work; details: published data, ref 1 (Supplementary References), read-out: Approximate EC50; cited from earlier work
T2 construct: expressed in transfected cells; host or cells: Xenopus laevis oocytes, mRNA injected
T2 sequence (P19969 32-464 limits assumed): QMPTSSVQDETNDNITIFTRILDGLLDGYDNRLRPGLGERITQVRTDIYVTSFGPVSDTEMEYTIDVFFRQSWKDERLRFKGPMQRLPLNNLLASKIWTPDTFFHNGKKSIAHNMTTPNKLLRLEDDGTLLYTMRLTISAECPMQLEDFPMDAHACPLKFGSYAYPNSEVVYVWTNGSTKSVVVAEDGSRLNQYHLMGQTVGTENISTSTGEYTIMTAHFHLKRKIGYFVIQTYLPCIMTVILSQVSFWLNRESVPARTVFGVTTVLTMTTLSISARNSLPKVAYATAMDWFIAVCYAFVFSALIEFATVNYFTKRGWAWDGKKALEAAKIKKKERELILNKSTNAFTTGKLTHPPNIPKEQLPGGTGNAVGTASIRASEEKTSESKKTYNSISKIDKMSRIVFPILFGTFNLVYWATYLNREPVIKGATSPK
T2 sequence (P63079 26-473): as the sequence (P63079 26-473) above

α1β1γ1 GABAA receptors = biological target: T3, α1β1γ1 GABAA receptors (Rattus norvegicus, UniProt P15431+P62813); assay: Two electrode voltage clamp in Xenopus laevis oocytes, α1β1γ1; type: cell-based
T3 construct: expressed in transfected cells; host or cells: Xenopus laevis oocytes, mRNA injected
T3 sequence (P62813 28-455): as the sequence (P62813 28-455) above
T3 sequence (P15431 26-474): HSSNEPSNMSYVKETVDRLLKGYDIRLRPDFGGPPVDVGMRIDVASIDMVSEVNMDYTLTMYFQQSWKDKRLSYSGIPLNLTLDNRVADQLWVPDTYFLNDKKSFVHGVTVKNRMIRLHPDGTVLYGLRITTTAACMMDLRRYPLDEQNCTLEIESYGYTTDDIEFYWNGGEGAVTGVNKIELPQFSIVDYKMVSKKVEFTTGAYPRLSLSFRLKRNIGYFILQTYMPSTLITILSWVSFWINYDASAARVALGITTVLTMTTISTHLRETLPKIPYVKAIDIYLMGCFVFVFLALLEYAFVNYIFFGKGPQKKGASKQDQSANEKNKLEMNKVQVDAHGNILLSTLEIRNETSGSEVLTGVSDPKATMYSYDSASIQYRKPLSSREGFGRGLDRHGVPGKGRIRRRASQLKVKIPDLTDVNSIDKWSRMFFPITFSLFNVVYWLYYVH
T3 sequence (P23574 36-465 partner limits assumed): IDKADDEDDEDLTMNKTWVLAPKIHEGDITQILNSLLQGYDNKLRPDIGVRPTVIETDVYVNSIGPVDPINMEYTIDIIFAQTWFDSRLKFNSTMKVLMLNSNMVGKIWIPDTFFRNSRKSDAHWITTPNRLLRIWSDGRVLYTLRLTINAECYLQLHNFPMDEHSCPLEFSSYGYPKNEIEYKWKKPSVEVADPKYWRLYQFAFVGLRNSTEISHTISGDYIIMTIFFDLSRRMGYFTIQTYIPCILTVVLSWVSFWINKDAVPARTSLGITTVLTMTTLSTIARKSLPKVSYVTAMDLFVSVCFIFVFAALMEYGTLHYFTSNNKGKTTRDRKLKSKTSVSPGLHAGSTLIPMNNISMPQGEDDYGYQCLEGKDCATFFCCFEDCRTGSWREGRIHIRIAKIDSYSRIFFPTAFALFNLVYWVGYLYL
Source text: (§1) cDNA’s of rat GABAA receptor subunits α1, α4, β1, β2, β3 and γ2S were cloned as described. cDNAs of the rat subunits α2, α3 and α5 were gifts from P. Malherbe, that of α6 and γ1 were gifts of P. Seeburg and that of δ was a gift of C. Czajkowski. The mutants were constructed using the Q5 Site-Directed Mutagenesis Kit (New England Biolabs) following manufacturer’s instruction. We used the wild-type rat β3-pCI vector as template and the primers […] and […] resulting in a substitution of amino acid N41 (AAC) to R (AGG). We used the wild-type rat β1-pCI vector as template and the primers […] and […] resulting in a substitution of amino acid R41 (CGG) to N (AAC). The mutated subunits were confirmed by sequencing.
(§2) In vitro transcription of mRNA was based on the cDNA expression vectors encoding for rat GABAA receptor subunits α1–6, β1-3, γ1,2, δ and the two β mutants (β1R41N and β3N41R)[40]. After linearizing the cDNA vectors with appropriate restriction endonucleases, the cDNA was purified and concentrated with the DNA Clean and Contentrator ^TM Kit (Zymoresearch, Catalog No. D4005). Capped transcripts of the purified cDNA were produced using the mMESSAGE mMACHINE® T7 transcription kit (Ambion, TX, USA) and polyadenylated using the Ambion PolyA tailing kit (Ambion). After transcription and polyadenylation the RNA was purified with the MEGAclear ^TM Kit (Ambion, Catalog No. AM1908). The final RNA concentration was measured on NanoDrop® ND-1000 and finally diluted and stored in diethylpyrocarbonate-treated water at −80 °C. For the microinjection, the RNA of αβ receptor combinations was mixed at 1:1 ratio (which leads to αβ receptors that consist of predominantly 3 beta and 2 alpha subunits[27]), for αkβlγm (k = 1–3, l = 1, 3, m = 1, 2) receptors at 1:1:5 ratio, for αkβ3γ2 (k = 4–6) and αkβlδ (k = 1, 4 and 6, l = 1, 3) receptor combinations at 3:1:5 ratio.
(§3) Mature female Xenopus laevis (Nasco, WI) were anesthetized in a bath of ice-cold 0.17% Tricain (Ethyl-m-aminobenzoate, Sigma, MO) before decapitation in full accordance with all rules of the Austrian animal protection law (see http://www.ris.bka.gv.at/Dokumente/BgblAuth/BGBLA_2012_I_114/BGBLA_2012_I_114.pdf) and the Austrian animal experiment by-laws (see https://www.ris.bka.gv.at/Dokumente/BgblAuth/BGBLA_2012_II_522/BGBLA_2012_II_522.pdf) which implement the European Directive 2010/63/EU (see http://eur-lex.europa.eu/LexUriServ/LexUriServ.do?uri=OJ:L:2010:276:0033:0079:en:PDF) into the Austrian law (all information accessed on July 27, 2016). The frog’s ovaries were transferred to ND96 medium (96 mM NaCl, 2 mM KCl, 1 mM MgCl2, 5 mM HEPES; pH 7.5). Stage 5–6 oocytes with the follicle cell layer around them were roughly dissected with forceps into packages of 10–15 cells and washed in Ca^2+-free ND96 medium. Cells were then digested with collagenase (type IA, Sigma, NO, 1 mg/mL ND96) at 18 °C shaking at 30 rpm for 30–60 minutes and gently defolliculated with the aid of a glass pipette with appropriate tip diameter and a platinum loop. Defolliculated cells were stored at 18 °C for at least 6 hours in ND96 solution containing penicillin G (10000 IU/100 mL) and streptomycin (10 mg/100 mL) in order to preselect and exclude damaged cells from further treatment. Healthy defolliculated oocytes were injected with an aqueous solution of mRNA. A total of 4.5 ng of mRNA per oocyte was injected with a Nanoject II (Drummond). After injection of mRNA, oocytes were incubated at 18 °C (ND96 + antibiotic) for 2–3 days for αβ receptors and for 3–4 days for αβγ or αβδ receptors before recording. When cells were measured at later time points, oocytes were stored at +4 °C instead of 18 °C.
(§4) For electrophysiological recordings, oocytes were placed on a nylon-grid in a bath of Ca^2+-containing NDE solution medium [96 mM NaCl, 5 mM HEPES-NaOH (pH 7.5), 2 mM KCl, 1 mM MgCl2, 1.8 mM CaCl2].

α2β3 GABAA receptors = biological target: T4, α2β3 GABAA receptors (Rattus norvegicus, UniProt P23576+P63079); set-up: method as in earlier work; details: published data, ref 1 (Supplementary References), read-out: Approximate EC50; cited from earlier work
T4 construct: expressed in transfected cells; host or cells: Xenopus laevis oocytes, mRNA injected
T4 sequence (P23576 29-451): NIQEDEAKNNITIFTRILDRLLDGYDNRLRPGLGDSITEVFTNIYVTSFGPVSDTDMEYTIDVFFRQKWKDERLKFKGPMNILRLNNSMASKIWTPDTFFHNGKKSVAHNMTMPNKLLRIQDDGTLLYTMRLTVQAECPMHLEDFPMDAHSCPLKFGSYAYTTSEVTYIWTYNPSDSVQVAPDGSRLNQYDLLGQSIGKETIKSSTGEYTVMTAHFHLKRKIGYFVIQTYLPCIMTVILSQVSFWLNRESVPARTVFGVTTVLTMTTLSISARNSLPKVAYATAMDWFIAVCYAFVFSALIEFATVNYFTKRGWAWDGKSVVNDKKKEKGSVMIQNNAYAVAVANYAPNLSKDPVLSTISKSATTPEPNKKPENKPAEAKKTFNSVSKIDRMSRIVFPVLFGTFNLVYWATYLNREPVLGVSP
T4 sequence (P63079 26-473): as the sequence (P63079 26-473) above

α5β2γ2 GABAA receptors = biological target: α5β2γ2 GABAA receptors; set-up: method as in earlier work; details: published data, ref 1 (Supplementary References), read-out: Approximate EC50; cited from earlier work
α1β1δ GABAA receptors = biological target: T5, α1β1δ GABAA receptors (Rattus norvegicus, UniProt P15431+P62813); assay: Two electrode voltage clamp in Xenopus laevis oocytes, α1β1δ; type: cell-based; details: α1β1δ
T5 construct: expressed in transfected cells; host or cells: Xenopus laevis oocytes, mRNA injected
T5 sequence (P62813 28-455): as the sequence (P62813 28-455) above
T5 sequence (P15431 26-474): as the sequence (P15431 26-474) above
T5 sequence (P18506 17-449 partner limits assumed): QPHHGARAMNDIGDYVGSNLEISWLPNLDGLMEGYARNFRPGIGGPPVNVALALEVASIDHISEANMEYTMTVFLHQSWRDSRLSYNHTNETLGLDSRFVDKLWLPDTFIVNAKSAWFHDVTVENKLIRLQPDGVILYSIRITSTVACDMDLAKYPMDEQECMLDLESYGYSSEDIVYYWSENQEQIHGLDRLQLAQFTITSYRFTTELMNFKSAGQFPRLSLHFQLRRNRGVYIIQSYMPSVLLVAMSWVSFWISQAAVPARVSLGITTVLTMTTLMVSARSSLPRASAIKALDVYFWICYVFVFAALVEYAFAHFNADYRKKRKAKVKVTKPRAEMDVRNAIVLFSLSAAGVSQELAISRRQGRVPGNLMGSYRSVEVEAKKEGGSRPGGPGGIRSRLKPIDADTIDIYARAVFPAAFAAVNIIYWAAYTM
Source text: as §1, §2, §3, §4

α3β3γ2 GABAA receptors = biological target: T6, α3β3γ2 GABAA receptors (Rattus norvegicus, UniProt P20236+P63079); set-up: method as in earlier work; details: published data, ref 1 (Supplementary References), read-out: Approximate EC50; cited from earlier work
T6 construct: expressed in transfected cells; host or cells: Xenopus laevis oocytes, mRNA injected
T6 sequence (P20236 29-493): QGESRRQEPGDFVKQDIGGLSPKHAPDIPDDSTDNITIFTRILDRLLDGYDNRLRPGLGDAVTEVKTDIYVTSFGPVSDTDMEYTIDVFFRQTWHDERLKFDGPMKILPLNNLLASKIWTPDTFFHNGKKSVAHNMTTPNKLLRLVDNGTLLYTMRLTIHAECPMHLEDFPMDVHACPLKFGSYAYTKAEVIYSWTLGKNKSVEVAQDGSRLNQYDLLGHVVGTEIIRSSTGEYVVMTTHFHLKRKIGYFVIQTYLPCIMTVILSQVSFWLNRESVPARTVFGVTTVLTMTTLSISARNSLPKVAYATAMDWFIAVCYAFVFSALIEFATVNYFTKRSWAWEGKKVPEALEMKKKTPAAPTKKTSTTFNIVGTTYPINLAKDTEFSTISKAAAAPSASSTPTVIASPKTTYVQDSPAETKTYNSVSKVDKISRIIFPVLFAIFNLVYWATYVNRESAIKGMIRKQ
T6 sequence (P63079 26-473): as the sequence (P63079 26-473) above
T6 sequence (P18508 39-466 partner): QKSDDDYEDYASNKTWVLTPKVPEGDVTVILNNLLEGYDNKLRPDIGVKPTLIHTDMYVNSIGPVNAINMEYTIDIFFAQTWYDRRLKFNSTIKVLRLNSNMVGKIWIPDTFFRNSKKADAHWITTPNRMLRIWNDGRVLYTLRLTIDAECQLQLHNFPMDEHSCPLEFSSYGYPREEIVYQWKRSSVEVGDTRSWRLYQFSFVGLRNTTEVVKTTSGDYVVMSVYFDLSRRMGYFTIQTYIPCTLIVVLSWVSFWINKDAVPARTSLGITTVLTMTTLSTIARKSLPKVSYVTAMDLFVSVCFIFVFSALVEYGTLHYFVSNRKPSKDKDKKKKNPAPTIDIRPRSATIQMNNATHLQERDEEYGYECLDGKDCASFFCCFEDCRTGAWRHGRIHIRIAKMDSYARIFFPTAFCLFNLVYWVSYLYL

α1β2γ2 GABAA receptors = biological target: α1β2γ2 GABAA receptors; set-up: method as in earlier work; details: published data, ref 1 (Supplementary References), read-out: Approximate EC50; cited from earlier work
α5β3γ2 GABAA receptors = biological target: T7, α5β3γ2 GABAA receptors (Rattus norvegicus, UniProt P19969+P63079); set-up: method as in earlier work; details: published data, ref 1 (Supplementary References), read-out: Approximate EC50; cited from earlier work
T7 construct: expressed in transfected cells; host or cells: Xenopus laevis oocytes, mRNA injected
T7 sequence (P19969 32-464 limits assumed): as the sequence (P19969 32-464 limits assumed) above
T7 sequence (P63079 26-473): as the sequence (P63079 26-473) above
T7 sequence (P18508 39-466 partner): as the sequence (P18508 39-466 partner) above

α2β3γ2 GABAA receptors = biological target: T8, α2β3γ2 GABAA receptors (Rattus norvegicus, UniProt P23576+P63079); set-up: method as in earlier work; details: published data, ref 1 (Supplementary References), read-out: Approximate EC50; cited from earlier work
T8 construct: expressed in transfected cells; host or cells: Xenopus laevis oocytes, mRNA injected
T8 sequence (P23576 29-451): as the sequence (P23576 29-451) above
T8 sequence (P63079 26-473): as the sequence (P63079 26-473) above
T8 sequence (P18508 39-466 partner): as the sequence (P18508 39-466 partner) above

α2β1γ2 GABAA receptors = biological target: α2β1γ2 GABAA receptors; set-up: method as in earlier work; details: published data, ref 1 (Supplementary References), read-out: Approximate EC50; cited from earlier work

EC50 (α1β1γ1 GABAA receptors): 80 nM
activity at 0.001 µM (α1β1γ1 GABAA receptors; read-out: efficacy, % of control current (GABA EC3-5 = 100%), α1β1γ1, 1 nM): 110 ± 9.9%
activity at 1 µM (α1β1γ1 GABAA receptors; read-out: efficacy, % of control current (GABA EC3-5 = 100%), α1β1γ1, 1 µM): 320 ± 17.9%
activity at 10 µM (α1β1γ1 GABAA receptors; read-out: efficacy, % of control current (GABA EC3-5 = 100%), α1β1γ1, 10 µM): 300 ± 20.8%
Hill slope (nH) (α1β1γ1 GABAA receptors; α1β1γ1): 1.1±0.4
activity at 0.01 µM (α1β1δ GABAA receptors; read-out: efficacy, % of control current (GABA EC3-5 = 100%), 10 nM): 126 ± 5.6%
activity at 0.03 µM (α1β1δ GABAA receptors; read-out: efficacy, % of control current (GABA EC3-5 = 100%), 30 nM): 192 ± 21.1%
activity at 10 µM (α1β1δ GABAA receptors; read-out: efficacy, % of control current (GABA EC3-5 = 100%), 10 µM): 294 ± 11.1%
Hill slope (nH) (α1β1δ GABAA receptors): 0.8±0.2
EC50 (α1β1δ GABAA receptors; co-applied with GABA EC3-5, read-out: EC50): 70 nM
EC50 (α1β1δ GABAA receptors; log of EC50, sign as printed, read-out: LogEC50 (converted)): 100 nM
SMILES: COc1ccc(-n2nc3c4cc(Cl)ccc4[nH]cc-3c2=O)cc1 [Compound 1, 8-Chloro-2-(4-methoxyphenyl)-2H-pyrazolo[4,3-c]quinolin-3(5H)-one]
EC50 (α3β2γ2 GABAA receptors): ~2100 nM
EC50 (α1β1γ2 GABAA receptors): ~100 nM
EC50 (α1β3 GABAA receptors): ~1600 nM
EC50 (α5β3 GABAA receptors): ~600 nM
EC50 (α2β3 GABAA receptors): ~3000 nM
EC50 (α5β2γ2 GABAA receptors): ~3000 nM
EC50 (α3β3γ2 GABAA receptors): ~1500 nM
EC50 (α1β2γ2 GABAA receptors): ~1900 nM
EC50 (α5β3γ2 GABAA receptors): ~600 nM
EC50 (α2β3γ2 GABAA receptors): ~2200 nM
EC50 (α2β1γ2 GABAA receptors): ~50 nM
